For this experiment, the system named is M. tuberculosis H37Rv growth inhibition. The experiment can be described thus: M. tuberculosis H37Rv growth inhibitors, H37Rv strain (AID 1626). The following applies: for IC90: measured here: IC90 against H37Rv; for CC50: measured here: Vero cell cytotoxicity.

For `O=C(CNCc1ccco1)Nc1ccc(Oc2ccccc2)cc1`, the IC90 is > 100 µM and the CC50 is > 40 µM.

On to `COc1ccc(C2(O)CC3CCC(C2)N3c2cc(C)nc(-c3ccccc3)n2)cc1` (stereo not given), for which the IC50 was 17.5 µM, the 90% effect concentration (IC90) is 23.9 µM and the CC50 is > 40 µM.

Regarding `CC(C)c1cc(NC(=O)CCl)on1`, the half-maximal inhibitory concentration (IC50) is 13.7 µM, the 90% effect concentration (IC90) came to 32.6 µM and the 50% cytotoxic concentration (CC50) worked out at 16.7 µM.

Regarding `Cc1ccccc1-c1cc(C(=O)Nc2nc3c(s2)CCCC3)c2ccccc2n1`, the half-inhibitory concentration (IC50) is 4.41 µM, the 90% effect concentration (IC90) came to 12.7 µM and the cytotoxic concentration (CC50) was > 40 µM.

On to `COc1cc(OC)c2cc[nH]c2c1`, for which the 90% effect concentration (IC90) was > 100 µM.

For the molecule `COC(=O)C(CC(C)C)NC(=O)/C=C/c1ccccc1Cl` (stereo not given), the IC50 is 4.67 µM and the IC90 was 7.81 µM.

As for `Oc1ccc(Cl)cc1N=Cc1sc2ccccc2c1Cl`, the 50% inhibitory concentration (IC50) was 6.53 µM, the IC90 amounted to 66.7 µM and the half-maximal cytotoxic concentration (CC50) is > 40 µM.

As to `Cc1cc(NC(=O)CCN2C(=O)C3C4C=CC(C4)C3C2=O)ccc1Br` (stereo not given), the IC50 was 35.3 µM and the concentration for an effect of 90% (IC90) is > 100 µM.

Take `Fc1ccc(C(c2ccc(F)cc2)N2CCN(C/C=C/c3ccccc3)CC2)cc1`: the 50% inhibitory concentration (IC50) was 7.94 µM, the IC90 amounted to 10.1 µM and the 50% cytotoxic concentration (CC50) was > 40 µM.

On to `CCOc1ccc(CN2CCN(CC(O)Cn3c4ccccc4c4ccccc43)CC2)cc1` (stereo not given), for which the IC50 is 4.35 µM, the IC90 came to 6.2 µM and the 50% cytotoxic concentration (CC50) amounted to 13.6 µM.

Consider `O=c1[nH][nH]c(-c2ccccc2O)c1C(C[N+](=O)[O-])c1cccc(Cl)c1` (stereo not given), for which the 50% inhibitory concentration (IC50) was 7.89 µM, the 90% effect concentration (IC90) was found to be 13.9 µM and the cytotoxic concentration (CC50) worked out at 26.7 µM.

Take `O=C1CCNc2ccc(-c3ccccc3)cc21`: the 90% effect concentration (IC90) was > 100 µM.

On to `COC(=O)c1cc(NC(=O)N2c3ccccc3Sc3ccccc32)cc(C(=O)OC)c1`, for which the CC50 is > 40 µM.

In the case of `COc1ccccc1NC(CC(=O)c1ccccc1)C(=O)OCC(=O)c1ccc(Br)cc1` (stereo not given), the concentration for half-maximal inhibition (IC50) is 13.8 µM and the concentration for an effect of 90% (IC90) came to 21.1 µM.

Consider `S=c1[nH]cnc2sc(-c3ccccc3)cc12`, for which the 50% inhibitory concentration (IC50) is 8.3 µM and the IC90 is > 100 µM.

In the case of `COCC(=O)Nc1ccc(Br)c(C)c1`, the IC90 is > 100 µM.

On to `CCN(CC)CCN1c2ccccc2Sc2ccc3ccccc3c21`, for which the IC50 was 10.4 µM, the concentration for an effect of 90% (IC90) came to 18.9 µM and the half-maximal cytotoxic concentration (CC50) is > 40 µM.

Consider `COc1cc(OC)cc(C(=O)Nc2nc3ccccc3[nH]2)c1`, for which the IC50 was 15.9 µM, the concentration for an effect of 90% (IC90) was > 100 µM and the CC50 is > 40 µM.

Take `Cc1cc2ccccc2n1CCNC(=O)COc1ccc2ccccc2c1`: the 50% inhibitory concentration (IC50) was 52.5 µM and the IC90 was > 100 µM.

With `CCOC(=O)COc1ccc(S(=O)(=O)NCCC2=CCCCC2)cc1`, the half-inhibitory concentration (IC50) is 12.1 µM and the 90% effect concentration (IC90) worked out at 20.8 µM.

Take `O=[N+]([O-])c1ccc(N=Nc2c(Cl)cc(O)cc2Cl)cc1`: the IC50 was 1.64 µM, the concentration for an effect of 90% (IC90) was 2.41 µM and the 50% cytotoxic concentration (CC50) was determined as 5.17 µM.

Take `CCOC(=O)CSc1ccc(-c2nc3ccccc3[nH]2)cn1`: the IC50 was 2.98 µM, the concentration for an effect of 90% (IC90) was found to be 5.54 µM and the CC50 is > 40 µM.

Regarding `CCOC(=O)c1ccc(N=C(C)c2c(O)[nH]c(=O)[nH]c2=O)cc1`, the IC90 is > 100 µM.

In the case of `Cc1cc(N2CCN(c3ccccc3)CC2)nc(-n2nc(C)cc2C)n1`, the IC50 was 8.84 µM, the IC90 was 47.3 µM and the 50% cytotoxic concentration (CC50) came out at 18.3 µM.

Regarding `c1ccc2c(Nc3ccc4c(c3)OCCO4)c3c(nc2c1)CCCC3`, the IC50 was 11.3 µM, the IC90 amounted to 29.1 µM and the CC50 is > 40 µM.

Turning to `Cc1ccn2c(NC3CCCC3)c(-c3ccccn3)nc2c1`, the IC50 was 3.19 µM, the 90% effect concentration (IC90) came out at 5.24 µM and the CC50 was found to be 8.93 µM.

In the case of `C=CCOc1ccc(/C=N/O)cc1Cl`, the IC90 was > 100 µM.

In the case of `CCOc1ccc(Nc2nc(N)nc(CCl)n2)cc1`, the IC50 is 23.2 µM, the IC90 was > 100 µM and the CC50 was 0.194 µM.

`N#CCC1c2ccccc2CCN1C(=O)Nc1ccc(C(F)(F)F)cc1` (stereo not given): the half-inhibitory concentration (IC50) is 5.9 µM and the IC90 is > 100 µM.

With `COC(=O)CSc1nnc(-c2ccc(OC)c(OC)c2)o1`, the IC50 is 1.43 µM and the IC90 amounted to 5.53 µM.

`CC1CCc2nc(NC(=O)CN3CCN(c4ccccc4)CC3)sc2C1` (stereo not given): the IC50 is 24.6 µM and the IC90 was > 100 µM.

Regarding `CC(=O)Nc1cccc(C(=O)/C=C/c2ccc(C)cc2)c1`, the IC50 is 33.7 µM, the concentration for an effect of 90% (IC90) is > 100 µM and the half-maximal cytotoxic concentration (CC50) was found to be 13.7 µM.

For `CCCCCCc1cc2cc(C(=O)NC)c(=N)oc2cc1O`, the IC50 was 4.69 µM and the 90% effect concentration (IC90) came out at 7.11 µM.

For `COc1ccc(NCc2n[nH]nc2-c2ccccc2)cc1Cl`, the half-maximal inhibitory concentration (IC50) was 25.7 µM, the IC90 is > 100 µM and the CC50 is > 40 µM.

Take `COC(=O)C1C2c3ccccc3OC1(C)N=c1s/c(=C/c3cnn(C)c3C)c(=O)n12` (stereo not given): the IC50 was 2.43 µM and the concentration for an effect of 90% (IC90) came out at 17.7 µM.

Turning to `COc1ccc(C[C@H]2CN3C(=NC[C@@H]3Cc3ccc(O)cc3)N2CCNC(=O)c2ccc(C)c(Br)c2)cc1`, the IC50 was 4.4 µM, the IC90 was 6.16 µM and the CC50 was > 40 µM.

Consider `O=C(CSc1nnc(-c2ccco2)o1)c1ccccc1Cl`, for which the IC90 is > 100 µM.

Turning to `CCN(CC)CCCNc1nc2cc(OC)c(OC)cc2c2nc(-c3ccccc3)nn12`, the IC50 was 9.3 µM, the IC90 stood at 13.8 µM and the cytotoxic concentration (CC50) was > 40 µM.

With `Cc1ccc(C(=O)Nc2nc(-c3ccccn3)cs2)o1`, the IC50 is 2.56 µM, the IC90 turned out to be 6.19 µM and the half-maximal cytotoxic concentration (CC50) was > 40 µM.

Turning to `CC(C)(C)c1ccc(C(=O)/C=C2\NC(=O)CS2)cc1`, the IC50 was 11.8 µM, the IC90 is > 100 µM and the half-maximal cytotoxic concentration (CC50) is > 40 µM.

For `CC1CCCC(NC(=O)COC(=O)c2sc3ccccc3c2Cl)C1C` (stereo not given), the IC50 was 7.47 µM and the IC90 was > 100 µM.

Turning to `CCOC(=O)c1ccc(NC(=O)CCc2nc(-c3ccc(Cl)cc3)no2)cc1`, the 50% inhibitory concentration (IC50) is 0.898 µM and the IC90 is 18.4 µM.

Consider `CCN1CCN(Cc2ccc(NC(=O)c3cc(NC(=O)c4cc(-c5ccc(OC)cc5)n[nH]4)cc(OC)c3)cc2C(F)(F)F)CC1`, for which the IC50 is 4.41 µM, the IC90 came to 5.93 µM and the half-maximal cytotoxic concentration (CC50) was found to be 6.28 µM.

`Cc1ccc(Cc2cnc(NC(=O)C3CCCO3)s2)cc1` (stereo not given): the IC90 was > 100 µM and the CC50 is > 40 µM.

In the case of `O=C1/C(=C/c2ccccc2[N+](=O)[O-])COc2ccccc21`, the IC50 was 2.9 µM, the concentration for an effect of 90% (IC90) turned out to be 3.25 µM and the cytotoxic concentration (CC50) was 5.95 µM.

Consider `CCN(CC)Cc1nc2c(c(=O)[nH]1)C1(CCCCC1)Cc1ccccc1-2`, for which the IC50 was 6.77 µM and the 90% effect concentration (IC90) is > 100 µM.

Turning to `Clc1ccc(COC(Cn2ccnc2)c2ccc(Cl)cc2Cl)cc1` (stereo not given), the IC50 was 3.74 µM, the concentration for an effect of 90% (IC90) is 5.68 µM and the cytotoxic concentration (CC50) worked out at 33.1 µM.

On to `CC(=O)NC(=O)c1ccc(-c2ccc(Cl)cc2)o1`, for which the IC50 was 11.3 µM and the IC90 is > 100 µM.

Regarding `CN1C[C@@H]2C(c3ccc(C(F)(F)F)cc3)C3(c4cccnc4)CC2(C3)[C@H]1c1ccccc1` (stereo not given in full), the IC50 is 14.1 µM and the IC90 was 21.4 µM.

As for `CCCn1c(NC(=O)C23CC4CC(CC(O)(C4)C2)C3)nc2ccccc21`, the 50% inhibitory concentration (IC50) is 11.1 µM, the concentration for an effect of 90% (IC90) was > 100 µM and the CC50 was > 40 µM.

As for `NC1CCN(c2c(F)cc3c(=O)c(C(=O)O)cn(C4CC4)c3c2Cl)C1` (stereo not given), the concentration for half-maximal inhibition (IC50) was < 0.391 µM and the 90% effect concentration (IC90) was < 0.391 µM.

On to `COc1ccc(C(=O)Nc2cc(OC)c(NC(=O)c3ccco3)cc2OC)cc1`, for which the IC50 was 2.85 µM and the concentration for an effect of 90% (IC90) was determined as 9.59 µM.

As for `O=C(O)c1ccc(Nc2nc(-c3cc4ccccc4oc3=O)cs2)cc1O`, the IC50 is 20.1 µM and the IC90 was > 100 µM.

Consider `CCCC(=O)OCCNc1cc(Sc2nc3ccccc3[nH]2)c2nonc2c1[N+](=O)[O-]`, for which the IC50 was 68.1 µM, the IC90 was > 100 µM and the CC50 stood at 23.5 µM.

For the molecule `COc1ccc(/C=C2\COc3ccccc3C2=O)cc1OC`, the half-inhibitory concentration (IC50) is 9.44 µM, the 90% effect concentration (IC90) was 14.6 µM and the CC50 came to 29.2 µM.

Regarding `O=C(/C=C/c1ccccc1O)c1ccc(Cl)cc1`, the half-maximal inhibitory concentration (IC50) was 14.4 µM, the IC90 was determined as 24.1 µM and the CC50 was 27 µM.

Take `Cc1sc2nc[nH]c(=S)c2c1-c1ccccc1`: the concentration for half-maximal inhibition (IC50) was 32.3 µM, the 90% effect concentration (IC90) was > 100 µM and the cytotoxic concentration (CC50) is > 40 µM.

On to `O=C(NC1=NCCS1)c1ccc(-c2ccc(Cl)cc2)o1`, for which the IC50 was 28.4 µM and the IC90 is > 100 µM.

For `CCOC(=O)c1sc(NC(=O)CNCc2ccccn2)c(C(=O)OCC)c1C`, the IC50 is 2.77 µM, the 90% effect concentration (IC90) came out at 4.22 µM and the CC50 is > 40 µM.

As for `CCn1cc(C(=O)NCc2cccc(F)c2)c(=O)c2cc(F)c(N3CCN(C(=O)c4ccco4)CC3)cc21`, the half-inhibitory concentration (IC50) was 2.69 µM, the IC90 came to 6.52 µM and the CC50 turned out to be 27 µM.

On to `COc1ccc(-c2nnc(NC(=O)C3=COCCO3)o2)cc1`, for which the half-inhibitory concentration (IC50) was 12.7 µM, the concentration for an effect of 90% (IC90) amounted to 19.7 µM and the CC50 was > 40 µM.

On to `COc1ccc(N=Cc2c(O)ccc3ccccc23)cc1`, for which the IC90 was > 100 µM.

As to `Cc1[nH]n(-c2nc(-c3ccc(Cl)cc3)cs2)c(=O)c1N=Nc1ccc(O)cc1`, the half-maximal inhibitory concentration (IC50) was < 0.195 µM, the IC90 stood at 5.6 µM and the 50% cytotoxic concentration (CC50) was 15.8 µM.

Turning to `O=C(COc1cccc(Cl)c1)Nc1ccc2c(c1)CCC2`, the concentration for half-maximal inhibition (IC50) is 22.4 µM and the IC90 is > 100 µM.

For the molecule `O=C(CCSc1nnc(-c2ccccc2)o1)N1CCOCC1`, the half-inhibitory concentration (IC50) is 13 µM and the IC90 was 18 µM.

Take `c1ccc(CC2CCN(c3nc4ccccc4n4cnnc34)CC2)cc1`: the half-maximal inhibitory concentration (IC50) was 1.77 µM, the IC90 came to 3.44 µM and the cytotoxic concentration (CC50) was > 40 µM.

Take `CCCOC(=O)c1ccc(NC(=O)C2CCCO2)cc1` (stereo not given): the half-inhibitory concentration (IC50) was 10.3 µM and the IC90 is > 100 µM.

Broadly, the IC90 is the concentration at which the effect reaches the 90% level. A lower IC90 goes with greater potency. In general, CC50 refers to the concentration giving 50% cytotoxicity. Low readings indicate greater toxicity to the cells, high ones lower toxicity to the cells. In general, IC50 refers to the concentration that inhibits the measured activity by half.

The values are drawn from PubChem BioAssay AID1626 (SRMLSC, 2009).
